Data set [1] concerns Rattus norvegicus. The experiment in a line: Antiobesity activity in Sprague-Dawley rat assessed as reduction of food intake at 3 mg/kg, sc qd measured up to 7 hrs relative to control. The data set is classed as functional. Also on record: scale not given: the % may be the effect or the level left. The note with it: route subcutaneous.
The target of data set [2] is Melanocortin receptor 5 (Homo sapiens, UniProt P33032). The experiment in a line: Displacement of [125I]-NAD-alpha-MSH from human recombinant MC3 receptor human MC5 expressed in BHK570 cells after 1 hr in presence of ovalbumin. The data set is classed as cell-based. (Displacement assays read how much labelled ligand stays bound in the presence of the test substance.)

Data set [3] has as its target T1, Melanocortin receptor 4 (Homo sapiens, UniProt P32245). Description: Agonist activity at human recombinant MC4 receptor expressed in BHK570 cells assessed as induction of […] accumulation in presence of 0.1% human serum albumin. The data set is classed as functional, cell-based.
In data set [4] the target is Melanocyte-stimulating hormone receptor (Homo sapiens, UniProt Q01726). The experiment in a line: Displacement of [125I]-NAD-alpha-MSH from human recombinant MC1 receptor expressed in BHK570 cells after 90 mins in presence of ovalbumin. The data set is classed as cell-based.
Data set [5] can be described thus: Dissociation constant, pKa of the compound. The data set is classed as physicochemical.
Data set [6] has as its system Rattus norvegicus. Description: Antiobesity activity in Sprague-Dawley rat assessed as reduction of food intake at 3 mg/kg, sc qd measured after 7 to 24 hrs relative to control. The data set is classed as functional. Also on record: scale not given: the % may be the effect or the level left. Conditions: route subcutaneous.
Data set [7] addresses T1, Melanocortin receptor 4. Description: Displacement of [125I]-NAD-alpha-MSH from MC4 receptor after 2 hrs by gamma counting in presence of ovalbumin.
Data set [8] deals with Rattus norvegicus. Description: Antiobesity activity in Sprague-Dawley rat assessed as reduction of food intake at 3 mg/kg, sc qd measured after 24 to 48 hrs relative to control. The data set is classed as functional. The note with it: route subcutaneous.
Data set [9] addresses Melanocortin receptor 3 (Homo sapiens, UniProt P41968). Description: Displacement of [125I]-NAD-alpha-MSH from human recombinant MC3 receptor expressed in BHK570 cells after 1 hr in presence of ovalbumin. The data set is classed as cell-based.
Data set [10] in a line: Half life in human. Conditions: in vivo. The data set is classed as ADME, organism-based.
The nature of data set [11]: Solubility of the compound at pH 3 to 8. The data set is classed as physicochemical. The note with it: buffer.
For data set [12], the target named is Melanocortin receptor 4 (Rattus norvegicus) (UniProt P70596). The experiment in a line: Agonist activity at rat MC4 receptor. The data set is classed as functional.
Data set [13] deals with T1, Melanocortin receptor 4. Description: Agonist activity at human recombinant MC4 receptor expressed in BHK570 cells assessed as induction of […] accumulation relative to alpha-MSH in presence of 0.1% human serum albumin. The data set is classed as functional, cell-based.

Active and inactive are the calls of the source. No cut-off for these calls is given here.

Chain of Melanocortin receptor 5 (P33032 whole entry): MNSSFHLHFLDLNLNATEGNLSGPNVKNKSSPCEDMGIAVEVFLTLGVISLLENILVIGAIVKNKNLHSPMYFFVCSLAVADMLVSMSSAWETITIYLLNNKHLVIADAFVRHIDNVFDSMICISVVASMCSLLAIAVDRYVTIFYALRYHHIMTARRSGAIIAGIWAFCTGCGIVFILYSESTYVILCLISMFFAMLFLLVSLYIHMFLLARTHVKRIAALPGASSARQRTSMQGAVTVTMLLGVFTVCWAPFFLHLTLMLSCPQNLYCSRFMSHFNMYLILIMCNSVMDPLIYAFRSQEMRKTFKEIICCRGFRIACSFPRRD
T1 sequence (P32245 whole entry): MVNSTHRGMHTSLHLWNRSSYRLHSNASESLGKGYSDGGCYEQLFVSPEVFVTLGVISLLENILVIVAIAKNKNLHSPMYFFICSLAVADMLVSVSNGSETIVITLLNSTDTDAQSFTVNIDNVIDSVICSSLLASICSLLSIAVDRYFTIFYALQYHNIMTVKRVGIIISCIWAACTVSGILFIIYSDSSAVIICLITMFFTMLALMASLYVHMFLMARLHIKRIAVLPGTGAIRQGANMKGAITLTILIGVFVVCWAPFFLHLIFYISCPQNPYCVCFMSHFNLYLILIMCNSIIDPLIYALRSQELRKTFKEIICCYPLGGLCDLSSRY
Chain of Melanocyte-stimulating hormone receptor (Q01726 whole entry): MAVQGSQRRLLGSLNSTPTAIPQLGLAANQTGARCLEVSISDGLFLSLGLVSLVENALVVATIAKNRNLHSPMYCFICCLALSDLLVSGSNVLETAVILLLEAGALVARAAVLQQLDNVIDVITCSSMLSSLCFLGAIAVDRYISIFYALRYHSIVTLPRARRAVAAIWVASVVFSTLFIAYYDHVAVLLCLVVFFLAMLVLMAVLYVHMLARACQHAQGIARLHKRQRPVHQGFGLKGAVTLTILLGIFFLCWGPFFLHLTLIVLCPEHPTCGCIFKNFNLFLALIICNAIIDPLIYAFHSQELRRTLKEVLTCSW
Chain of Melanocortin receptor 3 (P41968 whole entry): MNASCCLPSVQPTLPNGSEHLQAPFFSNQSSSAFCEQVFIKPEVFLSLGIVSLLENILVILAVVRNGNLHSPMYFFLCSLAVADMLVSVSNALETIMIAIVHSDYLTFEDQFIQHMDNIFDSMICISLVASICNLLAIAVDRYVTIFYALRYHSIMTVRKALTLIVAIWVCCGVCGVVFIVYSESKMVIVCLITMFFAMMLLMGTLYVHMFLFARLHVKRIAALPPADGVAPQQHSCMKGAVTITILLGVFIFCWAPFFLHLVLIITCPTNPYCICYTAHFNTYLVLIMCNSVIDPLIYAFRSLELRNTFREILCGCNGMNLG
Chain of Melanocortin receptor 4 (Rattus norvegicus) (P70596 whole entry): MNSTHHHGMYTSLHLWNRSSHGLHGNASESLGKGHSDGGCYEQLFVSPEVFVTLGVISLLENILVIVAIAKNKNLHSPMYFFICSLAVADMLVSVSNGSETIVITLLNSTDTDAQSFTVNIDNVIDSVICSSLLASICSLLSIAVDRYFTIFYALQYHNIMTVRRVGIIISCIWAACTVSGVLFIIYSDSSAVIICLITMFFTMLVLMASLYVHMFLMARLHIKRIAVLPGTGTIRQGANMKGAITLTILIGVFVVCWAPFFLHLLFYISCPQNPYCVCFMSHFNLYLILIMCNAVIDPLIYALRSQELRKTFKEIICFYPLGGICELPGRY

As to `CCCCCCCCCCCCCCCC(=O)NS(=O)(=O)CCCC(=O)NCC(=O)N[C@@H](CO)C(=O)N[C@@H](CCC(N)=O)C(=O)N[C@@H](Cc1cnc[nH]1)C(=O)N[C@@H](CO)C(=O)N[C@@H](CCCC)C(=O)N[C@H]1CCC(=O)NCCCC[C@@H](C(N)=O)NC(=O)[C@H](Cc2c[nH]c3ccccc23)NC(=O)[C@H](CCCNC(=N)N)NC(=O)[C@@H](Cc2ccccc2)NC(=O)[C@@H]2C[C@@H](O)CN2C1=O`, the Activity in [1] is listed as 40%; in data set [6], 36%. The Ki (commonly the dissociation constant of the complex between target and ligand, obtained from inhibition or displacement) in data set [2] worked out at 1.2 nM; in data set [4], 230 nM; in [7] it was 0.11 nM; in [9], 8.2 nM. In data set [3], the EC50 (in general, the concentration giving half of the maximal effect) amounted to 0.15 nM. Moreover, the pKa (usually the pH at which an ionisable group is half protonated) in data set [5] amounted to 2. Besides, in data set [8], the “Food intake relative to control” value amounted to 58%.

As to `CCCC[C@H](NC(C)=O)C(=O)N[C@H]1CC(=O)NCCCC[C@@H](C(=O)O)NC(=O)[C@H](Cc2c[nH]c3ccccc23)NC(=O)[C@H](CCCNC(=N)N)NC(=O)[C@@H](Cc2ccccc2)NC(=O)[C@H](Cc2c[nH]cn2)NC1=O` [BREMELANOTIDE], the Activity is listed as 23% in data set [1] and 91% in [6]. Also, the inhibitory constant (Ki) in data set [4] is 6.4 nM. For the same compound, in data set [10], the half-life (usually how long it takes for the measured level to halve) was 2 h. In data set [8], the “Food intake relative to control” value is 100%.

On to `CCCC[C@H](NC(=O)[C@H](CNC(=O)CN(CC(=O)O)CC(=O)O)NC(=O)[C@H](Cc1cnc[nH]1)NC(=O)[C@H](CCC(N)=O)NC(=O)[C@H](CO)NC(=O)CNC(=O)COCCOCCNC(=O)CCCCCCCCCCCCCCCc1nnn[nH]1)C(=O)N[C@H]1CCC(=O)NCCCC[C@@H](C(N)=O)NC(=O)[C@H](Cc2c[nH]c3ccccc23)NC(=O)[C@H](CCCN=C(N)N)NC(=O)[C@@H](Cc2ccccc2)NC(=O)[C@@H]2C[C@@H](O)CN2C1=O`, for which the solubility entry in data set [11] is “soluble”. In addition, the Ki in [2] was 13 nM; in data set [9] it was 71 nM. In addition, in data set [3], the EC50 came to 88 nM.

As to `CCCC[C@H](NC(=O)[C@@H](N)CNC(=O)[C@H](Cc1cnc[nH]1)NC(=O)[C@H](CCC(N)=O)NC(=O)[C@H](CO)NC(=O)CNC(=O)COCCOCCNC(=O)CCCCCCCCCCCCCCCc1nnn[nH]1)C(=O)N[C@H]1CCC(=O)NCCCC[C@@H](C(N)=O)NC(=O)[C@H](Cc2c[nH]c3ccccc23)NC(=O)[C@H](CCCNC(=N)N)NC(=O)[C@@H](Cc2ccccc2)NC(=O)[C@@H]2C[C@@H](O)CN2C1=O`, the Activity in [1] worked out at 82%; in [6], 54%. In addition, the result in data set [12] was Active. Besides, in [8], the “Food intake relative to control” value worked out at 81%.

Regarding `CCCC[C@H](NC(=O)[C@H](CNC(=O)CN(CC(=O)O)CC(=O)O)NC(=O)[C@H](Cc1cnc[nH]1)NC(=O)[C@H](CCC(N)=O)NC(=O)[C@H](CO)NC(=O)CNC(=O)COCCOCCNC(=O)CCCCCCCCCCCCCCCc1nnn[nH]1)C(=O)N[C@H]1CCC(=O)NCCCC[C@@H](C(N)=O)NC(=O)[C@H](Cc2c[nH]c3ccccc23)NC(=O)[C@H](CCCNC(=N)N)NC(=O)[C@@H](Cc2ccccc2)NC(=O)[C@@H]2C[C@@H](O)CN2C1=O`, the values for the Activity in [1] and in data set [6] were 53% and 39%, respectively. The outcome in data set [12] was Active. For the same compound, the maximal effect (Emax) (as a rule, the size of the effect at its maximum, as opposed to the concentration needed) in data set [13] was found to be 85%. The “Food intake relative to control” value in [8] turned out to be 66%.

For `CCCC[C@H](NC(=O)[C@H](CCC(=O)O)NC(=O)[C@H](CCCNC(=N)N)NC(=O)[C@H](CCC(=O)O)NC(=O)[C@H](CCC(=O)O)NC(=O)CNC(=O)COCCOCCNC(=O)CCCCCCCCCCCCCCCc1nnn[nH]1)C(=O)N[C@H]1CCC(=O)NCCCC[C@@H](C(N)=O)NC(=O)[C@H](Cc2c[nH]c3ccccc23)NC(=O)[C@H](CCCNC(=N)N)NC(=O)[C@@H](Cc2ccccc2)NC(=O)[C@@H]2C[C@@H](O)CN2C1=O`, the Activity in data set [1] is 74%; in [6], 90%. Moreover, the Emax in data set [13] was found to be 77%. In data set [8], the “Food intake relative to control” value is reported as 98%.

As to `CCCC[C@H](NC(=O)[C@H](CO)NC(=O)[C@H](Cc1cnc[nH]1)NC(=O)[C@H](CCC(N)=O)NC(=O)[C@H](CO)NC(=O)CNC(=O)COCCOCCNC(=O)CCCCCCCCCCCCCCCc1nnn[nH]1)C(=O)N[C@H]1CCC(=O)NCCCC[C@@H](C(N)=O)NC(=O)[C@H](Cc2c[nH]c3ccccc23)NC(=O)[C@H](CCCNC(=N)N)NC(=O)[C@@H](Cc2ccccc2)NC(=O)[C@@H]2C[C@@H](O)CN2C1=O`, the Activity in [1] is on record as 79%; in data set [6] it was 56%. For the same compound, the inhibition constant Ki was determined as 15 nM in data set [2], 1200 nM in data set [4], 0.2 nM in data set [7] and 67 nM in data set [9]. Besides, in [3], the concentration for a half-maximal effect (EC50) was 170 nM. Further, the “Food intake relative to control” value in [8] stood at 92%.

For the compound `CCCC[C@H](NC(=O)[C@H](CN)NC(=O)[C@H](Cc1cnc[nH]1)NC(=O)[C@H](CCC(N)=O)NC(=O)[C@H](CO)NC(=O)CNC(=O)COCCOCCNC(=O)CCCCCCCCCCCCCCCc1nnn[nH]1)C(=O)N[C@H]1CCC(=O)NCCCC[C@@H](C(N)=O)NC(=O)[C@H](Cc2c[nH]c3ccccc23)NC(=O)[C@H](CCCNC(=N)N)NC(=O)[C@@H](Cc2ccccc2)NC(=O)[C@@H]2C[C@@H](O)CN2C1=O`, the figures for the Activity in data set [1] and in data set [6] were 49% and 45%, respectively. Moreover, the result in [12] was Active. In [8], the “Food intake relative to control” value came to 73%.

The values above are taken from ChEMBL document CHEMBL2069212, “Identification and in vivo and in vitro characterization of long acting and melanocortin 4 receptor (MC4-R) selective α-melanocyte-stimulating hormone (α-MSH) analogues” (J Med Chem, 2012).
